Data from patent publication US12569170B2, “Paramagnetic sodium NMR macrocyclic-based biosensors, and associated methods” (Yale University, priority 2021, dated 2026).
Entries after “also recorded” stand apart in the source; their conditions may differ.

Key:
[1] = Bulk magnetic susceptibility (BMS) contribution to chemical shift in phantoms; format: physicochemical; details: phantoms parallel, perpendicular to B0 and spherical
Excerpt: Upon translation of the present in vitro results to in vivo situations, certain confounding factors must be addressed. In the interstitial space, there are additional cations such as calcium (Ca^2+), magnesium (Mg^2+) and K^+ which will also bind to anionic contrast agents like TmDOTP^5−. However, physiologically their concentrations are low compared to Na^+. […] Additionally, there is a contribution to the chemical shift from bulk magnetic susceptibility (BMS) changes brought about by TmDOTP^5− in addition to the hyperfine shifts induced by interactions with Na^+. Experiments were performed on different DOTP^8− salts in phantoms parallel and perpendicular to the main magnetic field B0, and also spherical phantoms in which there was no BMS contribution. Only a small portion (˜2%) of the total chemical shift for TmDOTP^5− was due to BMS arising due to anisotropy of the paramagnetic susceptibility, and the remainder was the hyperfine shift.

U87-bearing rat brain = test: In vivo ^23Na-MRSI line broadening in glioma models; details: glioma models, after agent infusion
Excerpt: FIGS. 10C-10F illustrates images according to certain embodiments of the disclosure. […] However, the ^23Na linewidth analysis by TmDOTP^5− is confounded by its high ^23Na shiftability. This peak separation in vivo overestimates the full-width at half-maximum (FWHM) calculations and exaggerates the measured ^23Na linewidths.
Slice 1 is most superficial, and slice 3 is the deepest. The tumor outline is depicted in white in all columns.
This establishes GdDOTP^5−-induced ^23Na linewidth broadening as a potential surrogate marker for the altered Na^+ biodistribution within tumors. Thus, in brain tumor models, TmDOTP^5− with ^23Na-NMR can separate Na^+ in intracellular, blood, and interstitial pools, while GdDOTP^5− can distinguish Na^+ within intracellular and extracellular (i.e., blood and interstitial) pools.
Because the majority of the present studies looked at ^23Na chemical shift, the line broadening capabilities of these paramagnetic agents were also interrogated. […] This is due to the high magnetic moment of Gd^3+ which contributes to some degree of anisotropy to the paramagnetic susceptibility. […] Crucially, this family of paramagnetic agents has allowed to insightful probing of the tumor microenvironment and drawing of significant conclusions about tumor aggressiveness based on spectroscopic analysis.

O=P([O-])([O-])CN1CCN(CP(=O)([O-])[O-])CCN(CP(=O)([O-])[O-])CCN(CP(=O)([O-])[O-])CC1.[Na+].[Na+].[Na+].[Na+].[Na+].[Tm+3] [TmDOTP^5−, sodium thulium (III) 1,4,7,10-tetraazacyclododecane-1,4,7,10-tetrakis(methylenephosphonate)]
portion of the total chemical shift due to BMS [1]: ~2% | ^23Na line broadening in tumor versus normal tissue (U87-bearing rat brain): most prominent within the tumor; also recorded: substantial ^23Na line broadening within tumor models compared to normal tissue
